According to BindingDB's records for doi:10.1016/s0960-894x(00)00248-1 (University of Munich, 2000):

Target: Beta-lactamase TEM (Escherichia coli, UniProt P62593)
Experiment: ChEBML_39213
Protocol: Beta-Lactamase inhibition activity after 15 min of pre-incubation with the enzyme isolated from Escherichia coli 205 TEM

Sequence of Beta-lactamase TEM (P62593 whole entry): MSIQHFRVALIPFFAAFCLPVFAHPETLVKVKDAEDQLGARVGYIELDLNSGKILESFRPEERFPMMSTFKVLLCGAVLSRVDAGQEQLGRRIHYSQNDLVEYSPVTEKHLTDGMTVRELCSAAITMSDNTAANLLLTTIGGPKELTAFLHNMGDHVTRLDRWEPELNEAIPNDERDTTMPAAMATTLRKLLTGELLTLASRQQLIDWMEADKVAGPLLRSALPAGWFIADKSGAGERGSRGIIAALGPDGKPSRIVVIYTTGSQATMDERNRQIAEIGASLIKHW

COC1=C(C(=O)O)N2C(=O)[C@H]([C@@H](C)O)[C@H]2C1 [Potassium; (5R,6S)-6-((R)-1-hydroxy-ethyl)-3-methoxy-7-oxo-1-aza-bicyclo[3.2.0]hept-2-ene-2-carboxylate]
IC50: 340 µM
